Test results taken from US20220265836A1, “COMPLEX, MEDICINE, THERAPEUTIC AGENT FOR CANCER, KIT AND CONJUGATE” (TOKYO INSTITUTE OF TECHNOLOGY, priority 2019, published 2022).
Marks after values point to notes of the source that are not given here. Each block holds one compound with its values, some of them ahead of it.

Key:
[1] = Formation of ternary complex encapsulating various substances: particle diameter by DLS or FCS; type: physicochemical; details: for Particle diameter of encapsulated substance: substance alone
Protocol: Ternary complexes were formed using not only the GFP protein but also a small molecule medicine, a peptide, an adeno-associated virus, an inorganic particle, a nucleic acid, and the like, and the particle diameter change was measured. As the measurement method, dynamic light scattering (DLS) or fluorescence correlation spectroscopy (FCS) was used.
Temperature: 25° C., measurement time: 10 seconds, number of integrations: 10 times
The method for measuring dynamic light scattering is as follows. Dynamic Light Scattering (DLS Zetasizer Nano ZS (manufactured by Malvern Instruments) was used to carry out DLS measurement at a detection angle of […] and a temperature of 25° C. A He—Ne laser (633 nm) was used as the incident beam. Each complex solution was added to a small glass cuvette (capacity: 12 μL, ZEN2112, manufactured by Malvern Instruments). The data obtained from the decay rate in the photon correlation function was analyzed by the Cumulant method, and then the hydrodynamic diameter (the arithmetic mean diameter based on the number of complexes) of each complex was calculated by the above Einstein-Stokes equation. […]
The pitavastatin solution and the tannic acid solution were mixed to adjust a pitavastatin/TA solution. Then, PEG-P[Lys(FPBA)10]20 was added to the pitavastatin/TA solution to adjust a pitavastatin/TA/PEG-P[Lys(FPBA)10]20 (a pitavastatin ternary complex) solution. […]

[2] = Bonding force by alizarin red method, PEG-P[Lys(FPBA)10]20; type: binding; details: for relative equilibrium constant with PEG10k-P[Lys(FPBA)10]20: alizarin red method, Ex 468 nm/Em 572 nm
Protocol: (§1) The bonding force was evaluated by the alizarin red method, which has been established as a method for quantifying the bonding force between boronic acid and the diol structure. The principle of the alizarin red method is briefly shown below by taking the method carried out in present Examples as an example.
[Final Concentrations of GFP, TA, PEG-FPBA, and PEG-P[Lys(FPBA)10]20] • Solution A: ARS (9.0×10^−6 M) • Solution B: ARS (9.0×10^−6 M)+PEG-FPBA (FPBA concentration: 2.0×10^−3 M) • Solution C: ARS (9.0×10^−6 M)+PEG-P[Lys(FPBA)10]20 (FPBA concentration: 2.0×10^−3 M) • Solution D: ARS (9.0×10^−6 M)+PEG-FPBA (FPBA concentration: 2.0×10^−3 M)+tannic acid (diol concentration=5.0×10^−4 M) • Solution E: ARS (9.0×10^−6 M)+PEG-FPBA (2.0×10^−3 M)+gallic acid (diol concentration=5.0×10^−4 M) • Solution F: ARS (9.0×10^−6 M)+PEG-P[Lys(FPBA)10]20 (FPBA concentration: 2.0×10^−3 M)+tannic acid (diol concentration=5.0×10^−4 M) • Solution G: ARS (9.0×10^−6 M)+PEG-P[Lys(FPBA)10]20 (FPBA concentration: 2.0×10^−3 M)+gallic acid (diol concentration=5.0×10^−4 M)
(§2) Solution A, and Solution B or Solution C were mixed in various ratios and the fluorescence measurement was performed (Ex=468 nm, Em=572 nm) using a disposable cell. After substituting the obtained fluorescence intensity and the concentration of each FPBA into the following expression (1) and creating a calibration curve by the least squares method, the equilibrium constant K0 of the ARS-FPBA system was calculated from the slope of the calibration curve. Next, Solution B or Solution C was mixed with Solution D, E, F, or G containing each diol compound in various ratios in the combination of B+D, B+E, C+F, and C+G, and the fluorescence measurement was performed (Ex=468 nm, Em=572 nm) using a disposable cell. After substituting the obtained fluorescence intensity and the concentration of each diol compound into the following expression (2) and creating a calibration curve by the least squares method, the equilibrium constant K1 of each diol compound-BPA system was calculated from the slope of the calibration curve. The equilibrium constant obtained from the calibration curve is shown in Table 2 as a relative equilibrium constant.
[formula] • [L0]=Concentration of FPBA added • [S0]=Concentration of diol added • [I0]=Concentration of ARS
ΔIf=Ifs−Ifa • ΔIfc=Reciprocal of intercept of graph created in ARS-FPBA system • Ifs=Fluorescence intensity of ARS-FPBA • Ifa=Fluorescence intensity of solution A • K0=Equilibrium constant of ARS-FPBA • Kf=Equilibrium constant of diol compound—equilibrium constant of FPBA

[3] = Bonding force by alizarin red method, PEG-FPBA; type: binding; details: Ex 468 nm/Em 572 nm
Protocol: as §1, with “example. […]” for “example.”
as §2, with “The equilibrium constant obtained from the calibration curve is shown in Table 2 as a relative equilibrium constant.” left out

[4] = Pharmacokinetics of rose bengal ternary complex (blood retention); type: in vivo, mouse; details: 3 hours after intravenous administration, plasma fluorescence
Protocol: [Final Concentrations of rose bengal, TA, and PEG-P[Lys(FPBA)10]20] • Rose bengal: 0.1 mg/mL • Tannic acid: 1.0 mg/mL • PEG-P[Lys(FBPA)10]20: 16.5 mg/mL
The rose bengal solution and the tannic acid solution were mixed to adjust a rose bengal/TA solution. Then, PEG-P[Lys(FPBA)10]20 was added to the rose bengal/TA solution to adjust a rose bengal solution, a rose bengal/TA complex solution, and a rose bengal/TA/PEG-P[Lys(FPBA)10]20 (a rose bengal ternary complex) solution.
200 μl of the prepared solution described above was intravenously administered to the tail vein of the model mouse. One to three hours after the sample administration, dissection was carried out to recover blood, which was subsequently subjected to centrifugation at 5,000 g×10 minutes at 20° C. to recover 100 μl of a plasma component, and 700 μl of Passive Lysis Buffer was added thereto. Then, the fluorescence intensities (Ex/Em: 520 nm/570 nm) of the plasma component and the administered sample were measured with Spark to evaluate the blood retention. In the figure, rose bengal/TA/PEG-P[Lys(FPBA)10]20 is denoted by a rose bengal/TA/polymer.

Compound: Bleomycin sulfate
- Particle diameter of encapsulated substance [1]: 0.6 nm

Compound: O=C(O)c1cc(O)c(O)c(O)c1 [Gallic acid]
- bonding constant with PEG-P[Lys(FPBA)10]20 as compared with PEG-FPBA [2]: 2.5 times
- relative equilibrium constant with PEG10k-P[Lys(FPBA)10]20 [2]: 5,112
- relative equilibrium constant with PEG-FPBA [3]: 2,030

Compound: Gelonin
- Particle diameter of encapsulated substance [1]: 4.1 nm

Compound: O=C(OC[C@H]1O[C@@H](OC(=O)c2cc(O)c(O)c(OC(=O)c3cc(O)c(O)c(O)c3)c2)[C@H](OC(=O)c2cc(O)c(O)c(OC(=O)c3cc(O)c(O)c(O)c3)c2)[C@@H](OC(=O)c2cc(O)c(O)c(OC(=O)c3cc(O)c(O)c(O)c3)c2)[C@@H]1OC(=O)c1cc(O)c(O)c(OC(=O)c2cc(O)c(O)c(O)c2)c1)c1cc(O)c(O)c(OC(=O)c2cc(O)c(O)c(O)c2)c1 [Tannic acid (TA), Tannic acid]
- bonding constant with PEG-P[Lys(FPBA)10]20 as compared with PEG-FPBA [2]: 5 times
- relative equilibrium constant with PEG10k-P[Lys(FPBA)10]20 [2]: 8,827
- relative equilibrium constant with PEG-FPBA [3]: 1,877

Compound: β-D-galactosidase: β-D-galactosidase (βGal): Mw 540 kDa, enzyme
- Particle diameter of encapsulated substance [1]: 13.9 nm
- Particle diameter of complex ([1]; ternary complex substance/TA/PEG-P[Lys(FPBA)10]20, dynamic light scattering method): 42.8* nm
- Polydiversity (PDI) ([1]; ternary complex, dynamic light scattering method): 0.18

- concentration in blood [4]: about 0.22%
- Particle diameter of encapsulated substance [1]: 0.7 nm
Compound: O=C(O)c1c(Cl)c(Cl)c(Cl)c(Cl)c1-c1c2cc(I)c(=O)c(I)c-2oc2c(I)c(O)c(I)cc12 [Rose bengal]

Compound: C=Cc1c(C)c2cc3nc(c(CC(=O)O)c4[nH]c(cc5nc(cc1[nH]2)C(C)=C5CC)c(C)c4C(=O)O)[C@@H](CCC(=O)O)[C@@H]3C [Chlorine 6, Chlorin e6]
- Particle diameter of encapsulated substance [1]: 1.2 nm

Compound: O=C([O-])C[C@H](O)C[C@H](O)/C=C/c1c(C2CC2)nc2ccccc2c1-c1ccc(F)cc1.O=C([O-])C[C@H](O)C[C@H](O)/C=C/c1c(C2CC2)nc2ccccc2c1-c1ccc(F)cc1.[Ca+2] [Pitavastatin calcium]
- Particle diameter of encapsulated substance [1]: Aggregated
- Particle diameter of encapsulated substance ([1]; listed as pitavastatin): 4586 nm
